Assay results as given in article PMC11968506, “Toxicokinetics and analytical toxicology of the phenmetrazine-derived new psychoactive substance 3,4-methylenedioxyphenmetrazine studied by means of in vitro systems” (Archives of Toxicology, 2025).
Read-outs that look alike come from different tables or passages of the source.

How the values were obtained:
[1] = biological target: T1, CYP2D6 (Homo sapiens, UniProt P10635); experiment: CYP inhibition cocktail assay in pHLM, CYP2D6 (dextromethorphan); conditions: inhibitor 20 µM, dextromethorphan, pHLM; versus control without inhibitor
T1 sequence (P10635 whole entry): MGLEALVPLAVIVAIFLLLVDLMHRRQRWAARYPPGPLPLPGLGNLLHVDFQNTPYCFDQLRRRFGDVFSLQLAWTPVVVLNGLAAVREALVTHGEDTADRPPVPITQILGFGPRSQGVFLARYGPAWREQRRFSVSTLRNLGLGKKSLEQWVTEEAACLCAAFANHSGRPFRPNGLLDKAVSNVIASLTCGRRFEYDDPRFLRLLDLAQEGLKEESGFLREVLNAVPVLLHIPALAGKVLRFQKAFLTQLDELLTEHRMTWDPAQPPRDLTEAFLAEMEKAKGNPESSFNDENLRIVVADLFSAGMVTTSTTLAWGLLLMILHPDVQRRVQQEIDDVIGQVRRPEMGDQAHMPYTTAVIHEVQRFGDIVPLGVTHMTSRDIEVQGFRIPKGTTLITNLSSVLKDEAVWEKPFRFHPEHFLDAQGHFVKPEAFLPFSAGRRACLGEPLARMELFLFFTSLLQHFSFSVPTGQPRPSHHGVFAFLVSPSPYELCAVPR
Procedure: (§1) A modified dual-cocktail based method (Dinger et al. [2014b]) was used. Substrate cocktail A consisted of 8.9 µM dextromethorphan (CYP2D6), 86 µM testosterone (CYP3A4), 3.5 µM diclofenac (CYP2C9), and 12 µM phenacetin (CYP1A2). Substrate cocktail B included 30 µM bupropion (CYP2B6), 2 µM amodiaquine (CYP2C8) and 21 µM omeprazole (CYP2C19). Substrate concentrations were near their respective Michaelis–Menten constant (Km) values (Dinger et al. [2014a]) and all concentrations are final. Enzyme inhibition was investigated using a positive control, a test group, a control group, an interference group, and a negative control. In the test group, specific inhibitors were replaced by MDPM (20 µM). Instead of inhibitors, phosphate buffer was used in the control group. Enzymes were replaced with phosphate buffer in the negative control group. The interference group was incubated like the control group, but the reaction was stopped with 20 µM MDPM in acetonitrile, also containing 2.5 µM trimipramine-d3. All groups were incubated with a NADPH-regenerating system, consisting of 5 mM isocitrate, 2 U/mL isocitrate dehydrogenase, 5 mM Mg^2+, and 1.2 mM NADP^+. Further, substrate cocktail A or B, 90 mM phosphate buffer (pH 7.4), and 200 U/mL superoxide dismutase were added to each group. […] All groups were preincubated for 10 min at 37 °C. Then, pHLM (0.4 mg microsomal protein/mL) was added to each group except the negative control. Incubations were done for 15 min at 37 °C. Therefore, 50 µL of acetonitrile (− 20 °C) containing 2.5 µM trimipramine-d3 as internal standard was added. Incubations were done in triplicates and organic solvent in the incubation mixture was below 1% (Chauret et al. [1998]). Afterwards the samples were vortexed and centrifuged for 2 min at 18,407×g. 70 µL of the supernatant were transferred to autosampler vials and 10 µL were injected onto the LC-HRMS/MS system. Enzyme inhibition was evaluated by metabolite formation. […] The following settings were used: unpaired; one-tailed; significance level, 0.05; confidence intervals, 99%.

[2] = cited from earlier work
[3] = biological target: CYP2C9 (Homo sapiens, UniProt P11712); experiment: CYP inhibition cocktail assay in pHLM, CYP2C9 (diclofenac); conditions: inhibitor 20 µM, diclofenac 3.5 µM, pHLM 0.4 mg/mL, 15 min; control without inhibitor = 100%
Sequence of CYP2C9 (P11712 whole entry): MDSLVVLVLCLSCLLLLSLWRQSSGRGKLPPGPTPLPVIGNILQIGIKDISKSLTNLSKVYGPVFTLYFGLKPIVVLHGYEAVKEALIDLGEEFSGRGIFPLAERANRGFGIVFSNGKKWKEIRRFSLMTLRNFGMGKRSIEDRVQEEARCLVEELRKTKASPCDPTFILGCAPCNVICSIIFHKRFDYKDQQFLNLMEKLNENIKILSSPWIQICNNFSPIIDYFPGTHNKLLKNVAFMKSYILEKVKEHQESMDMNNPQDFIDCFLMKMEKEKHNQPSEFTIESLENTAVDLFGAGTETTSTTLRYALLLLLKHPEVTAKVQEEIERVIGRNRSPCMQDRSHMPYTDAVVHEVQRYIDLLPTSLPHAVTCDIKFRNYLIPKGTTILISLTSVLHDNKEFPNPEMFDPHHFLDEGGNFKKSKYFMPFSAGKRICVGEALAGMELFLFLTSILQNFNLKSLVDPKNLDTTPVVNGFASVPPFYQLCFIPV
Procedure: as §1

[4] = biological target: CYP2C19 (Homo sapiens, UniProt P33261); experiment: CYP inhibition cocktail assay in pHLM, CYP2C19 (omeprazole); conditions: inhibitor 20 µM, omeprazole 21 µM, pHLM 0.4 mg/mL, 15 min; control without inhibitor = 100%
Sequence of CYP2C19 (P33261 whole entry): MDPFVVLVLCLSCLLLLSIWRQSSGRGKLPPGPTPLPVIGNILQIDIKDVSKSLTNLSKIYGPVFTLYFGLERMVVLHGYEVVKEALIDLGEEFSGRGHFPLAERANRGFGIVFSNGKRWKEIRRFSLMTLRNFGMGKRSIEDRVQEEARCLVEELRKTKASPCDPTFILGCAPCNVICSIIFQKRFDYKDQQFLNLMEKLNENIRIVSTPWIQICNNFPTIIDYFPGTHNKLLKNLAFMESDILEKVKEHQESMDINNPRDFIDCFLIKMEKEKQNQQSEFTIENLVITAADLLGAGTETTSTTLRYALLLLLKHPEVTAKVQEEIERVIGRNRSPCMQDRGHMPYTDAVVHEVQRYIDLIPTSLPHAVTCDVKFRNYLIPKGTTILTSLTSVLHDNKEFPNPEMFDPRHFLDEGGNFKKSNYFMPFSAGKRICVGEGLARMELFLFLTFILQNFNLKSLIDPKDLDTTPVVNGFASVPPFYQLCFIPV
Procedure: as §1

[5] = ref Alberto-Silva et al. 2024; cited from earlier work
[6] = biological target: T2, CYP2C8 (Homo sapiens, UniProt P10632); experiment: CYP inhibition cocktail assay in pHLM, CYP2C8 (amodiaquine); conditions: inhibitor 100 µM, amodiaquine 2 µM, pHLM 0.4 mg/mL, 15 min; control without inhibitor = 100%
T2 sequence (P10632 1-490): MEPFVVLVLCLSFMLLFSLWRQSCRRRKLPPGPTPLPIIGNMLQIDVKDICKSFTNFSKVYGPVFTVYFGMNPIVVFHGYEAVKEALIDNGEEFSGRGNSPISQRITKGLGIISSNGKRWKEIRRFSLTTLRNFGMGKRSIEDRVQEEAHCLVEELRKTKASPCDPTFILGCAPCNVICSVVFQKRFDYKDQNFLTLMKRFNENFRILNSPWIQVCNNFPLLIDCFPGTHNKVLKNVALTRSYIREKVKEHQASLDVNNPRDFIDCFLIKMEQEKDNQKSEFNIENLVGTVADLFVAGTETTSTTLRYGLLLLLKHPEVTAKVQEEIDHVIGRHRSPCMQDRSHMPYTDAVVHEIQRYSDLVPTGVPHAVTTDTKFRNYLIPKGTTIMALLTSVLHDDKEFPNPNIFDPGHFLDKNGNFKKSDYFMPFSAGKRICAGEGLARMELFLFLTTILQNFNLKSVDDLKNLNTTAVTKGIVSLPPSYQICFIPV
Procedure: as §1

[7] = tested on: CYP2C8; conditions: 100 µM trimethoprim; ref Niemi et al. 2004; cited from earlier work
[8] = biological target: T1, CYP2D6; experiment: Monooxygenase mapping (ten human cDNA-expressed CYP isoforms and FMO3); assay type: in vitro ADME; set-up: Then, pHLM (0.4 mg microsomal protein/mL) was added to each group except the negative control; tissue Discovery Life Sciences; host or cells: pooled human liver microsomes, 25 donors; conditions: MDPM 25 µM, CYP 50 pmol/mL each or FMO3 0.25 mg protein/mL, 90 and 270 min
Procedure: As described elsewhere (Wagmann et al. [2016]) and with minor modifications, MDPM (25 µM) was incubated with 2.5 mM isocitrate, 0.8 U/mL isocitrate dehydrogenase, 100 U/mL superoxide dismutase, 0.6 mM NADP^+, 2.5 mM Mg^2+ and CYP1A2, CYP2A6, CYP2B6, CYP2C8, CYP2C9, CYP2C19, CYP2D6, CYP2E1, CYP3A4, CYP3A5 (50 pmol/mL each), or FMO3 (0.25 mg protein/mL) for 90 and 270 min at 37 °C. For incubations with CYP2A6 or CYP2C9, phosphate buffer was replaced with 90 mM Tris buffer, according to the manufacturer’s guideline. Thirty µL aliquots were taken at both timepoints. The reaction was stopped using 20 µL acetonitrile (− 20 °C) with 2.5 µM trimipramine-d3 as an internal standard. All incubations were done in duplicates and concentrations are final. […] Negative control samples without enzymes and blank samples without substrate were incubated to identify not metabolically formed compounds and to confirm the absence of interfering compounds.

[9] = In vitro metabolism by HepaRG cells; assay type: in vitro ADME, human; conditions: MDPM 25 µM and 250 µM, tentative identification
Procedure: Cell incubations were performed in a monolayer assay as previously described (Richter et al. [2019]) and in accordance with the manufacturer’s instructions. HepaRG cells were thawed and resuspended in 13.5 mL (~ 740,000 cells/mL) thaw and seed medium at 37 °C. Thaw and seed medium consisted of Williams E medium, 100 U/mL penicillin, 100 µg/mL streptomycin, GlutaMAX and HPRG670 supplement. Cells were handled under sterile conditions using a laminar flow bench class II (Thermo Scientific, TF, Schwerte, Germany). Aliquots of 100 µL cell suspension were seeded on collagen-coated 96-well plates (~ 74,000 cells/well). Evaporation was minimized by filling the outer wells with 100 µL thaw and seed medium. Cells were preincubated for 4 h in an incubator (Binder, Tuttlingen, Germany) at 37 °C, 95% air humidity, and 5% CO2. After preincubation, 50 µL of the thaw and seed medium was replaced with 50 µL MDPM solution (25 µM and 250 µM final concentrations), followed by an incubation for 24 h at 37 °C, 95% air humidity, and 5% CO2 atmosphere. MDMA or quetiapine (25 µM and 250 µM final concentrations, respectively) were incubated as positive controls. All incubations were done in triplicates. Each well contained 0.5% (v/v) DMSO. […]

[10] = In vitro metabolism by pooled human liver S9 fraction; assay type: in vitro ADME; conditions: MDPM 25 µM, pHLS9 2 mg/mL, 60 and 360 min; tentative identification
Procedure: Incubations with pHLS9 were performed in accordance with previous publications and minor adjustments (Richter et al. [2017]). First, 25 μg/mL alamethicin (UGT reaction mix B), pHLS9 (2 mg microsomal protein/mL), 0.1 mM AcCoA, 2.3 mM acetylcarnitine, 8 U/mL carnitine acetyltransferase, 2.5 mM isocitrate, 0.8 U/mL isocitrate dehydrogenase, 100 U/mL superoxide dismutase, 0.6 mM NADP^+ and 2.5 mM Mg^2+ were preincubated for 10 min at 37 °C. Then, 2.5 mM UDP-glucuronic acid (UGT reaction mix A), 40 µM PAPS, 1.2 mM SAM, 1 mM DTT and 10 mM GSH were added. The reaction was started by adding the respective substrate MDPM, MDMA, or quetiapine (25 µM each). MDMA and quetiapine were incubated as positive controls. Negative control samples without enzymes and blank samples without substrates were incubated to identify not metabolically formed compounds and to confirm the absence of interfering compounds. […] Aliquots (50 µL) were transferred to a new reaction tube after 60 and 360 min. […] Samples were vortexed, stored at − 20 °C for 30 min, and centrifuged for 2 min at 18,407×g.

[11] = In vitro metabolism by pooled human liver microsomes; assay type: in vitro ADME; conditions: MDPM 25 µM, pHLM 1 mg/mL, 60 and 120 min; tentative identification
Procedure: Incubations with pHLM were in accordance with previous publications and minor modifications (Richter et al. [2017]). First, 2.5 mM isocitrate, 0.8 U/mL isocitrate dehydrogenase, 100 U/mL superoxide dismutase, 0.6 mM NADP^+, 2.5 mM Mg^2+ and pHLM (1 mg microsomal protein/mL) were preincubated for 10 min at 37 °C. […] Substances were incubated for 60 and 120 min at 37 °C. All concentrations are final concentrations, and incubations were done in duplicates. 50 µL aliquots were transferred to a new reaction tube at both timepoints. The reaction was stopped by adding 30 µL acetonitrile (− 20 °C) with 2.5 µM trimipramine-d3 as an internal standard. Negative control samples without enzymes and blank samples without substrates were performed to identify not metabolically formed compounds and to confirm the absence of interfering compounds.

[12] = biological target: T3, CYP2B6 (Homo sapiens, UniProt P20813); experiment: CYP inhibition cocktail assay in pHLM, CYP2B6 (bupropion); conditions: inhibitor 20 µM, bupropion 30 µM, pHLM 0.4 mg/mL, 15 min; control without inhibitor = 100%
T3 sequence (P20813 1-491): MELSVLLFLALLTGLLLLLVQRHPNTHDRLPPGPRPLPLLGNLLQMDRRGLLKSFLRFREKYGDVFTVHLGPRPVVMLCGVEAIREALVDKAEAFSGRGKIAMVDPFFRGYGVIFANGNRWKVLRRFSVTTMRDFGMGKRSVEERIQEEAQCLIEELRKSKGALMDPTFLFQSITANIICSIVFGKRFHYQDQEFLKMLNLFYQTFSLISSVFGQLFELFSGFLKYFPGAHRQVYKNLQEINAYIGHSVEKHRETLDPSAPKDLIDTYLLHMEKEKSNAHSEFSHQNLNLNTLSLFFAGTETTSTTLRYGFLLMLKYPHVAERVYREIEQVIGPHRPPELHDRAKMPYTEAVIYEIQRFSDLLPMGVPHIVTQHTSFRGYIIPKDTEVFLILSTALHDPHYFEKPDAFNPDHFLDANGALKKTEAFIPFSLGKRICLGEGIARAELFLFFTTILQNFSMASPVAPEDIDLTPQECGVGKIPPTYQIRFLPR
Procedure: as §1

Q: Which “decrease in CYP2D6 activity (inhibition)” value [1] does the source give for `C=C[C@H]1C[N@@]2CC[C@H]1C[C@@H]2[C@@H](O)c1ccnc2ccc(OC)cc12` [Quinidine, quinidine, reference compound] here?
A: 99%

Q: Which “plasma protein binding (PPB)” value ([2]; ref Franksson and Anggard 1970) does the source give for `CC1NCCOC1c1ccccc1` (stereo not drawn) [phenmetrazine] here?
A: 20%

Q: For `Nc1ccc(S(=O)(=O)Nc2ccnn2-c2ccccc2)cc1` [Sulfaphenazole, sulfaphenazole, reference compound], which CYP2C9 metabolite formation [3] is on record?
A: 9%

Q: For `OC(Cn1cncn1)(Cn1cncn1)c1ccc(F)cc1F` [Fluconazole, fluconazole, reference compound], which CYP2C19 metabolite formation [4] is on record?
A: 48%

Q: With `CC(N)Cc1ccccc1` (stereo not drawn) [amphetamine] as the molecule, how does the “plasma protein binding (PPB)” value ([2]; ref Franksson and Anggard 1970, Losacker et al. 2021) read?
A: 20–30%

Q: What does the source list for `CNC(C)Cc1ccc2c(c1)OCO2` (stereo not drawn) [MDMA, 3,4-methylenedioxymethamphetamine]?
A: in vitro half-life [5]: over 150 min; plasma protein binding (PPB) ([2]; ref Wan Aasim et al. 2017): 43–51%

Q: Which CYP2C8 metabolite formation [6] does the source give for `COc1cc(Cc2cnc(N)nc2N)cc(OC)c1OC` [Trimethoprim, trimethoprim, reference compound] here?
A: 81%

Q: And the “maximum inhibition of CYP2C8 activity” value [7]?
A: ≤ 40%

Q: Which “isozymes forming the demethylenyl metabolite (O-demethylenation of MDPM)” value [8] does the source give for `CC1NCCOC1c1ccc(O)c(O)c1` (stereo not drawn) [M1, Demethylenyl-MDPM] here?
A: only found in CYP2D6 incubations

Q: And the “metabolite detection in HepaRG incubations” value [9]?
A: could not be identified

Q: And the “metabolite detection in pHLS9 incubations” value [10]?
A: could not be identified

Q: And the “metabolite detection in pHLM incubations” value [11]?
A: found

Q: For `CN[C@H]1CC[C@@H](c2ccc(Cl)c(Cl)c2)c2ccccc21` [Sertraline, sertraline, reference compound], which CYP2B6 metabolite formation [12] is on record?
A: 24%

Q: Which “metabolite detection in pHLS9 incubations” value [10] does the source give for `COc1cc(C2OCCNC2C)ccc1O` (stereo not drawn) [M2] here?
A: found
